Laboratory results reported in patent US4778789A, “Piperazinecarboxamides having a phenoxyalkyl or thiophenoxyalkyl side chain” (priority 1985, dated 1988).
Where a name gives a salt, the structure may show the parent alone.

Tested on: isolation induced aggressive behaviour (male NMRI mice)
Test: Isolation induced aggressive behaviour test
Type: in vivo
Conditions: Mus musculus, sc, 0.5 hour after drug administration, read-out: ED50 (dose inhibiting aggressive behaviour among 50 percent of the pairs)
Description: This type of aggression is interesting because it is known that this kind of emotional behaviour might be located in limbic structures in the brain (MacLean, P. D., Psychosom. Med. 11, 338 (1949)).
Every week male NMRI mice, weighing 20-22 g, were isolated in Makrolon cages for three weeks with diet and water ad libitum. A piece of cardboard was placed between the cages to prevent visual contact.
To test aggressiveness the mice were paired in a neutral area, a beaker (14 cm high and diameter 14 cm). A pair is considered aggressive if both the animals show clear signs of fighting within 5 minutes. This fighting is characterized by biting and vocalization. A soon as fighting is seen, the mice are separated and brought to their home cage (every second mouse is marked). […] Animals showing no aggression are discarded.
The test substance is administered s.c. (0.2-0.4 ml/20 g). The mice are paired 0.5 hour after the injection for trials of 5 minutes' duration.
The ED50 -value (mg/kg) reported is the dose inhibiting aggressive behaviour among 50 percent of the pairs 0.5 hour after drug administration.

Structure (SMILES): CSc1ccc2c(c1)N(CCC1CCCCN1C)c1ccccc1S2 (centres unmarked) [Thioridazine]
- ED50: 5 mg/kg

Structure (SMILES): CCNC(=O)N1CCN(CCCOc2ccc(F)cc2)CC1 [1:3, 4-/3-(p-fluorophenoxy)proyl/-N-ethyl-1-piperazinecarboxamide hydrochloride]
- ED50: 5 mg/kg
